The text below walks through data of patent US20100047841A1, “SYNTHESIS OF DESACETOXYTUBULYSIN H AND ANALOGS THEREOF” (University of Pittsburgh-of the Commonwealth System of …, priority 2007, published 2010).

Test [1] concerns T98G human glioblastoma cell line. Briefly: Antiproliferative assay (MTS), GI50 in T98G cells. In kind it is cell-based. The text has this: General methods are known for determining the effect of compounds on proliferation of cells. See, e.g., Zhu et al., J. Med. Chem., 2006, 49, 2063-2076. Cells can be selected by one of skill in the art and can be maintained as exponentially growing cultures in a suitable medium (e.g., RPMI 1640 medium) with adjuvents, including FBS, penicillin, and glutamine, provided at levels known to those skilled in this field. For human cancer cells, e.g., human glioblastoma cell line T98G, the cells can be trypsinized and washed prior to formation of a cell suspension in appropriate buffer and plating of the cell suspension. Typical microtiter plate amounts can be 500-2000 cells/well. The cells can be allowed to attach and grow for a defined time period (e.g., 36 hours, 72 hours, 96 hours, or other defined period) before treatment with either vehicle (e.g., dimethylsulfoxide) or test agent (e.g., compound of the invention) followed by an additional defined time period (e.g., 36 hrs, 72 hrs, 96 hrs, and the like). At the end of the additional defined time period, viability of the cells can be determined by any of a variety of methods known in the art, including assays employing MTS (3-(4,5-dimethylthiazol-2-yl)-5-(3-carboxymethoxyphenyl)-2-(4-sulfophenyl)-2H-tetrazolium), as described by -Cory et al., Cancer Commun., 1991, 3, 207-212. […] Replicates are typically assayed to allow determination of appropriate statistical properties as known in the art.
Compounds of the invention with structures of Formulae Xa, XVb, and XVa were assayed for inhibition of growth of the T98G human glioblastoma cell line (Table II).
Human glioblastoma T98G cells (American Type Culture Collection, Manassas, Va.) were maintained as exponentially growing cultures in an RPMI 1640 medium with 10% FBS, 1% penicillin and 1% glutamine. The cells were seeded into 96-well plates and allowed to attach and grow for 48 hours. One plate of cells was used for a time zero cell number determination (N=16), and cells in other plates were treated for 72 hours or 96 hours with either DMSO (1% v/v; N=8 for each plate) or a range of concentrations, in quadruplicate, of test agents. Cell number was determined spectrophotometrically at 490 nm minus absorbance at 630 nm after exposure to 3-(4,5-dimethylthiazol-2-yl)-5-(3-carboxymethoxyphenyl)-2-(4-sulfophenyl)-2H-tetrazolium (MTS) and N-methylphenazine methylsulfate. The fifty percent growth inhibitory concentrations (GI50) of test agents were calculated from the spectrophotometrically determined growth of the control cells over the 72- or 96-hour period.

Another test has as its system bovine brain tubulin. Briefly: Inhibition of GTP-induced tubulin assembly (turbidimetry at 350 nm). The class given is biochemical. The conditions noted are these: after 20 min at 30° C., 10 μM bovine brain tubulin, 0.8 M monosodium glutamate. How it is done: Bovine brain tubulin was isolated to electrophoretic homogeneity from fresh brains via methodology described by Hamel and Lin, Biochemistry 23: 4173-84 (1984). Tubulin (final concentration 10 μM; 1 mg/mL) was preincubated with test agents dissolved in DMSO (4% v/v final concentration) and monosodium glutamate (0.8 M final concentration, pH 6.6) for 15 minutes at 30° C. The reaction mixture was cooled to 0° C., and GTP (0.4 mM final concentration) was added. Reaction mixtures were transferred to cuvettes held at 2.5° C. in a Beckmann DU 7400 multichannel, temperature-controlled (Peltier unit) spectrophotometer, reading absorbance (turbidity) at 350 nm in each cuvette every 15 seconds. Baselines were established and temperature was quickly raised to 30° C. (in approximately 1 minute). After 20 minutes, the temperature was returned to 2.5° C. The turbidity value after 20 minutes at 30° C. for GTP alone was assigned as 100% assembly, and for DMSO alone as 0% assembly. The IC50 was calculated by linear regression of the percent assembly values at the same time point obtained with 0.625, 1.25, 2.5, 5, 10 and 20 μM test agent. In experiments to test for disassembly of preformed tubulin polymer, the test agent was added after 7 minutes of GTP-induced assembly.

For test [2], the system named is bovine brain tubulin (vinca domain). Briefly: Inhibition of [3H]vinblastine binding to tubulin (centrifugal gel filtration). The conditions noted are these: 10 μM radiotracer, 10 μM tubulin; for % Inhibition of [3H]vinblastine binding by 5 μM test agent: 30 min room temperature; for IC50: test agent 0.5-100 μM, Hill fit. How it is done:
(§1) The new compounds were tested for their abilities to bind at the vinca domain and at the related peptide/depsipeptide site on tubulin using a modification of a centrifugal gel filtration method described by Bai et al., Mol. Pharmacol. 7: 965-76 (1995). In the initial screens, each 0.32 mL reaction mixture contained 5 μM test agent and 10 μM [^3H]vinblastine (specific activity 8.50 Ci/mmol; GE Healthcare Bio-Sciences, Picataway, N.J.) or 10 μM [^3H]dolastatin 10 (specific activity 1.96 Ci/mmol; obtained from the Drug Synthesis and Chemistry Branch of the National Cancer Institute) predissolved in DMSO (final concentration 1% v/v) and 10 μM bovine brain tubulin, all in 0.1 M 2-(4-morpholino)ethanesulfonic acid (Mes), pH 6.9, containing 0.5 mM MgCl2. The mixture was incubated for 30 min at room temperature. Two 0.15 mL aliquots of the reaction mixture were applied to duplicate 2 mL beds of pre-swollen (in Mes, pH 6.9, containing 0.5 mM MgCl2) Sephadex G-50 (superfine) contained in Handee columns (Pierce Biotechnology, Rockford, Ill.). The columns were centrifuged at 800×g for 4 minutes and the protein concentration in the effluent was determined, using the bicinchoninic acid assay. The amount of radiolabeled ligand bound to tubulin was determined using scintillation spectrometry. Each value represents the mean ±SD of four determinations. […] Inhibition was calculated as the percent difference relative to that of the control incubation with DMSO (i.e., without test agent—assigned as 0% inhibition). […] GraphPad Prism was used to fit the resulting data to the Hill equation to determine the IC50 values.

Test [3] concerns HeLa human cervical carcinoma cells. Briefly: High-content analysis of mitotic arrest in HeLa cells. The class given is cell-based. The conditions noted are these: for Microtubule Density MDEC (minimum detectable effective concentration) / Mitotic Index MDEC (percentage of phosphohistone H3-positive cells) / Nuclear Condensation MDEC (minimum detectable effective concentration) / EC50: 20 hours treatment, average of four experiments ± SD; for EC50: Homo sapiens, read-out: Cell Density EC50; for activity in high-content analysis of mitotic arrest (in words): all endpoints measured. How it is done:
The effects of tubulysin analogs on mitotic arrest and cellular microtubules were studied. HeLa human cervical carcinoma cells (10,000 per well) were plated in collagen-1 coated 384-well microplates and were treated with vehicle (DMSO) or ten two-fold concentration gradients of test agents within 4-6 hours of seeding. Cells were incubated for 20 hours at 37° C., fixed with formaldehyde, and labeled with 10 μg/mL Hoechst 33342 in Hank's balanced salt solution (HBSS). Cells were permeabilized with 0.5% (w/w) Triton X-100 for 5 min at room temperature and incubated with a primary antibody cocktail consisting of an HBSS solution containing rabbit polyclonal anti-phosphohistone H3 (Ser10, 1:500, Upstate), and mouse monoclonal anti-α-tubulin (1:3000, Sigma), followed by a mixture of FITC-labeled donkey anti-mouse IgG (1:500) and Cy3-labeled donkey anti-rabbit IgG (1:500). Cells were rinsed once with HBSS and stored at 4° C. in HBSS until analysis.
Microplates were analyzed with an ArrayScanII instrument (Cellomics, Pittsburgh, Pa.) using the Target Activation Bioapplication (Cellomics, Inc.). Within the application, 1,000 individual cells in each well were imaged at three different wavelengths, using an Omega XF93 filter set at excitation/emission wavelengths of 350/461 nm (Hoechst), 494/519 nm (FITC), and 556/573 nm (Cy3). The following parameters were used for data analysis: average nuclear intensity, nuclei per field, average nuclear FITC intensity, and average nuclear Cy3 intensity. A nuclear mask was generated from Hoechst 33342-stained nuclei. Microtubule density and histone H3 phosphorylation were measured in the FITC and Cy3 channel, respectively. Microtubule density was defined as the average green (FITC) pixel intensity in an area defined by the nuclear mask. For determination of mitotic index and nuclear condensation, thresholds for Hoechst 33342 and phosphohistone-H3 intensities were defined as the average Hoechst 33342 or Cy3 intensity plus one standard deviation from twenty-eight vehicle-treated wells placed in the center of the microplate.
Cells were classified as positive if their average Hoechst 33342 or Cy3 intensity exceeded this threshold. To illustrate visually the effects of test agents on cellular microtubules and mitotic arrest, the identical 384-well plates then were used to acquire higher resolution images of selected wells.
Asynchronously growing HeLa cells were treated for 20 hours with each compound in collagen-coated 384 well microplates, fixed, and incubated with primary antibodies for tubulin and the mitotic marker protein phosphohistone H3, followed by FITC and Cy3-conjugated secondary antibodies, respectively. Cells were detected by nuclear counterstaining with Hoechst 33342, which also provided information about chromatin condensation and cell density as markers of cell death.

Test [4] deals with bovine brain tubulin (peptide/depsipeptide site). Briefly: Inhibition of [3H]dolastatin 10 binding to tubulin (centrifugal gel filtration). The conditions noted are these: 10 μM radiotracer, 10 μM tubulin; for % Inhibition of [3H]dolastatin 10 binding by 5 μM test agent: 30 min room temperature. How it is done: as §1
Test [5] deals with bovine brain tubulin (vinca domain). Briefly: Inhibition of [3H]vinblastine binding to tubulin (centrifugal gel filtration). The conditions noted are these: 50 μM test agent.
Where [6] appears, read: Homo sapiens, T98G, 72 h (value in parentheses), ±SD, n = 4, Table IV, read-out: GI50 at (72 h) in T98 glioblastoma cells.
Setting [7] is: Homo sapiens, T98G, 96 h, ±SD, n = 4, Table IV, read-out: GI50 at 96 h in T98 glioblastoma cells.

Like-named read-outs stand apart in the source and are kept apart here.

On to `CC[C@H](C)[C@@H]([C@@H](CC(=O)N1CCC[C@H]1[C@H](OC)[C@@H](C)C(=O)N[C@@H](Cc1ccccc1)c1nccs1)OC)N(C)C(=O)[C@@H](NC(=O)[C@H](C(C)C)N(C)C)C(C)C` [dolastatin 10, reference compound], for which the GI50 stood at 0.1 nM in test [1] (72 h (value in parentheses), ±SD, n = 4, Table IV, read-out: GI50 at (72 h) in T98 glioblastoma cells) and 0.056 ± 0.025 nM in test [1] (96 h, ±SD, n = 4, Table IV, read-out: GI50 at 96 h in T98 glioblastoma cells). In addition, the results for the IC50 (in the test on bovine brain tubulin; in test [2]) were 1400 nM and 4600 ± 500 nM, respectively. Also, in test [2], the “% Inhibition of [3H]vinblastine binding by 5 μM test agent” value turned out to be 61 ± 1%.
With `CC(=O)O[C@H]1C(=O)[C@@]2(C)[C@H]([C@H](OC(=O)c3ccccc3)[C@]3(O)C[C@H](OC(=O)[C@H](O)[C@@H](NC(=O)c4ccccc4)c4ccccc4)C(C)=C1C3(C)C)[C@]1(OC(C)=O)CO[C@@H]1C[C@@H]2O` [paclitaxel, reference compound], the GI50 in test [1] (setting [6]) was 24 nM. Also, the GI50 in test [1] (setting [7]) came to 12 ± 7 nM. Also, the GI50 in test [1] (Homo sapiens, T98G cells, 72 h exposure, Table II, read-out: GI50 in T98G cell, 72 h) is 24 ± 9 nM. The 50% growth inhibitory concentration (GI50) in test [1] (Homo sapiens, T98G cells, 96 h exposure, Table II, read-out: GI50 in T98G cell, 96 h) was 12 ± 7 nM. The GI50 in test [1] (Homo sapiens, T98G cells, after 72 hrs exposure, read-out: GI50) is about 24 nM. Further, in test [3], the “Microtubule Density MDEC (minimum detectable effective concentration)” value is given as 7.0 ± 2.9 nM, the “Mitotic Index MDEC (percentage of phosphohistone H3-positive cells)” value stood at 4.2 ± 3.6 nM, the “Nuclear Condensation MDEC (minimum detectable effective concentration)” value is 10.2 ± 8.2 nM and the EC50 was determined as 11.3 ± 2.7 nM. Besides, the “activity in high-content analysis of mitotic arrest (in words)” value in test [3] is recorded as “nanomolar activity”.
Consider `CC[C@]1(O)C[C@@H]2CN(CCc3c([nH]c4ccccc34)[C@@](C(=O)OC)(c3cc4c(cc3OC)N(C)[C@H]3[C@@](O)(C(=O)OC)[C@H](OC(C)=O)[C@]5(CC)C=CCN6CC[C@]43[C@@H]65)C2)C1` [vinblastine, reference compound], for which the GI50 in test [1] (setting [6]) worked out at 8.6 nM; in test [1] (setting [7]), 1 ± 0.6 nM. For the same compound, in the test with bovine brain tubulin, half-maximal inhibition (IC50) was put at 1600 nM. Further, the “% Inhibition of [3H]dolastatin 10 binding by 5 μM test agent” value in test [4] is reported as 5 ± 6%.
As to `CC[C@]1(O)C[C@H]2CN(CCc3c([nH]c4ccccc34)[C@@](C(=O)OC)(c3cc4c(cc3OC)N(C=O)[C@H]3[C@@](O)(C(=O)OC)[C@H](OC(C)=O)[C@]5(CC)C=CCN6CC[C@]43[C@@H]65)C2)C1` [vincristine, reference compound], in test [3], the “Microtubule Density MDEC (minimum detectable effective concentration)” value is 10.5 ± 10.1 nM, the “Mitotic Index MDEC (percentage of phosphohistone H3-positive cells)” value was found to be 4.1 ± 1.9 nM, the “Nuclear Condensation MDEC (minimum detectable effective concentration)” value is 2.6 ± 2.0 nM and the 50% effective concentration (EC50) was 19.7 ± 10.7 nM. The “activity in high-content analysis of mitotic arrest (in words)” value in test [3] is given as “nanomolar activity”. Further, in test [2], the “% Inhibition of [3H]vinblastine binding by 5 μM test agent” value was determined as 65 ± 2% and the IC50 amounted to 4400 ± 700 nM. The “% Inhibition of [3H]dolastatin 10 binding by 5 μM test agent” value in test [4] is 21 ± 5%. In test [4] (test agent 0.5-100 μM, Hill fit), this compound had an IC50 of 29000 ± 5000 nM. Moreover, the “% Inhibition of [3H]vinblastine binding @50 μM” value in test [5] is on record as “(@50 μM: 98 ± 1%)”.
